# Laboratory results from paper PMC7572767 (Psychopharmacology, 2020).
# Molecular target: norepinephrine transporter (NET) (Homo sapiens, UniProt P23975)
# Test: fluorescent substrate uptake inhibition in HEK293 cells stably expressing NET
# Type: cell-based
# norepinephrine transporter (NET), sequence (P23975 whole entry): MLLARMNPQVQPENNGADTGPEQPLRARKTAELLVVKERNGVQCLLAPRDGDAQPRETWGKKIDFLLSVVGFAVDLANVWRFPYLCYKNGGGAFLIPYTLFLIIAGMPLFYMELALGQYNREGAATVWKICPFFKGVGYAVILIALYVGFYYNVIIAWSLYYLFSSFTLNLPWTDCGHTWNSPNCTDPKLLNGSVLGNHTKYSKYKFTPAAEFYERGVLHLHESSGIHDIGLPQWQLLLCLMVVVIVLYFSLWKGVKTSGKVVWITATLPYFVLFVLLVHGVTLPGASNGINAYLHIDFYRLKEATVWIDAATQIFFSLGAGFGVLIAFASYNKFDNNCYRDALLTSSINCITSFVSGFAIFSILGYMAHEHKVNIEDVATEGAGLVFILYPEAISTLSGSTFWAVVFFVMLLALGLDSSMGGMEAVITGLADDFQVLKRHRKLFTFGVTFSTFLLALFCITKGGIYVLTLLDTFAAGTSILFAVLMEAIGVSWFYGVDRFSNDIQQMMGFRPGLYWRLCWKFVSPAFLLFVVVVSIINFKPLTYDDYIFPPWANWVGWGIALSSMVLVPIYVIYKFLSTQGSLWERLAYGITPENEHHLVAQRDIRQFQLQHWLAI
smiles,measurement,value
"[O-][S@@+](Cc1cncs1)[C@@H](c1ccccc1)c1cccc(Br)c1 [(S, S)-CE-158, 5-(((S)-((S)-(3-bromophenyl)(phenyl)methyl)sulfinyl)methyl)thiazole]",IC50,12 µM
